Laboratory results from patent publication US11253589B2, “Modulation of the immune response” (priority 2007, dated 2022).
Entries after “also recorded” stand apart in the source; their conditions may differ.

Tests used:
C57BL/6 mice = experiment: EAE induced by immunization with MOG35-55 in CFA; format: in vivo, mouse; design: EAE severity: dose or concentration left out as unconfirmed
CD4+Foxp3+ Treg = CD4+Foxp3+ Treg quantified by FACS in treated mice; format: in vivo, mouse; design: number of CD4+FoxP3+ Treg / number of CD4+Foxp3+ T cells / levels of LAP+ regulatory T cells / number of CD4+FoxP3:GFP+ Treg in blood and spleen: dose or concentration left out as unconfirmed
[1] = test system: CD4+IL-17+ and CD4+IFNg+ T cells; experiment: Frequency of CD4+IL-17+ and CD4+IFNg+ T cells by FACS; format: in vivo, mouse
Description: In addition, cells were stimulated in culture medium containing 100 μg/ml MOG35-55 for 2 days or with PMA (50 ng/ml) (Sigma-Aldrich) and ionomycin ([…]) (Calbiochem, San Diego, Calif., USA) for 4 hours, Golgistop (BD Biosciences) was added to the culture during the last 4 hours. After staining of surface markers, cells were fixed and permeabilized using Cytofix/Cytoperm and Perm/Wash buffer from BD Biosciences according to the manufacturer's instructions. All antibodies to cytokines (IFN-gamma, IL-17, IL-10) including the corresponding isotype controls were obtained from BD Biosciences. Cells were incubated (1:100) at 25° C. for 20 min and washed twice in Perm/Wash before analysis. Data were acquired on a FACSCalibur (BD Biosciences) and analyzed with FlowJo software (Tree Star, Ashland, Oreg., USA).
To confirm the suppressive effects of AHR activation on the generation of T cells secreting IFNg and IL17, IFNg^+ and IL17^+ CD4^+ T cells were quantified by FACS in the draining lymph nodes ten days after footpad immunization and intraperitoneal administration of ITE ([…]).

CD11c+ and CD11b+ cells = experiment: MHC class II expression on CD11c+ and CD11b+ cells by FACS; format: in vivo; conditions: ITE 200 mg/mouse ip daily or TCDD 1 mg/mouse ip on day 0; spleens 10 days after MOG35-55/CFA
From the text: AHR is known to be expressed by antigen presenting cells (APC) such as dendritic cells (CD11c^+) and macrophages (CD11b^+) (Vorderstrasse and Kerkvliet, Toxicol Appl Pharmacol. 171, 117 (2001); Laupeze et al., J Immunol. 168, 2652 (2002); Hayashi et al., Carcinogenesis. 16, 1403 (1995); Komura et al., Mol Cell Biochem. 226, 107 (2001)). To analyze the effects that AHR activation by ITE might have on different APC populations, which can potentially influence the generation of Teff and Treg cells, we studied the effect of ITE and TCDD treatment on MHC class II expression by as dendritic cells (CD11c^+) and macrophages (CD11b). C57BL/6 mice were treated with ITE (200 mg/mouse administered ip, daily) or TCDD (1 mg/mouse administered ip on day 0) and immunized them with […] of MOG35-55 in CFA. Spleens were prepared 10 days later and […] expression was investigated on CD11b^+ and CD11c^+ cells by FACS.

AHR = target: T1, AHR (Homo sapiens, UniProt P35869); conditions: cited from earlier work
T1 sequence (P35869 11-848): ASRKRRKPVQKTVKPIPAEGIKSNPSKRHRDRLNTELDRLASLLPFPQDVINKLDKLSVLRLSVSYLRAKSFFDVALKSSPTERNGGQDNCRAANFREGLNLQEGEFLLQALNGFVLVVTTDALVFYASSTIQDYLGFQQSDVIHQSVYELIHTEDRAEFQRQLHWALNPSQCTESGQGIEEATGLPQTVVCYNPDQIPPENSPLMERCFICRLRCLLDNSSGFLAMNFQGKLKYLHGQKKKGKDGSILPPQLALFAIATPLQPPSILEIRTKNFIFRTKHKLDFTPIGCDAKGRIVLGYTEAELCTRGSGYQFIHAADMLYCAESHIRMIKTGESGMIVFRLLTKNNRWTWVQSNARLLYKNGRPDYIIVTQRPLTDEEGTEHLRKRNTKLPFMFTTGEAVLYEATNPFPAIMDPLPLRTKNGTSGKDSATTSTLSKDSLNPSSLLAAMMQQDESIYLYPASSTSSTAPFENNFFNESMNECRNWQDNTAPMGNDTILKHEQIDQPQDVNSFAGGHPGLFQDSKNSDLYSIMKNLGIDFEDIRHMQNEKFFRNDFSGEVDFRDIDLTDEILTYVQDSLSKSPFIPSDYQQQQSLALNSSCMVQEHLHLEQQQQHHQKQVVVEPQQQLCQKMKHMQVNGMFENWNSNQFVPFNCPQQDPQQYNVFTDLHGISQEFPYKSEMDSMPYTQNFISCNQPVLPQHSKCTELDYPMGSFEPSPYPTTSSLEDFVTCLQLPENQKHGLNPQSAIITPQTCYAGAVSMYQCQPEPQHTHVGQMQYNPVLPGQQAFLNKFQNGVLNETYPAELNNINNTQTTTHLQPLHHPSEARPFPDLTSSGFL

[2] = ITE 200 μg/mouse daily, either orally or intraperitoneally
[3] = ITE ip daily, MOG35-55/CFA, spleens
[4] = ITE orally daily, MOG35-55/CFA, spleens
[5] = ITE 200 mg/mice intraperitoneal, draining lymph nodes ten days after footpad immunization
[6] = C57BL/6 (WT) mice, TCDD 1 μg/mouse, Table 4
[7] = draining lymph nodes of TCDD-treated mice

COC(=O)c1csc(C(=O)c2c[nH]c3ccccc23)n1 [ITE, 2-(1′H-indole-3′-carbonyl)-thiazole-4-carboxylic acid methyl ester]
protective effects on EAE (C57BL/6 mice; ITE 200 μg/mouse at weekly intervals instead of daily): complete loss of tis protective effects on EAE; also recorded: fails to suppress EAE development
EAE clinical score (C57BL/6 mice; [2]): significant reduction of EAE clinical score
EAE development (delay) (C57BL/6 mice; [2]): significant delay on EAE development
EAE severity (C57BL/6 mice; administered on a daily basis): significant reduction on EAE severity
number of CD4+FoxP3:GFP+ Treg in blood and spleen (CD4+Foxp3+ Treg; Foxp3gfp knock in mice, ITE ip daily, ten days after MOG35-55/CFA): significant increase in the number
levels of LAP+ regulatory T cells (CD4+Foxp3+ Treg; [3]): did lead to significant alterations
number of CD4+FoxP3+ Treg (CD4+Foxp3+ Treg; [3]): significant increase in the number
levels of LAP+ regulatory T cells (CD4+Foxp3+ Treg; [4]): did lead to significant alterations
number of CD4+FoxP3+ Treg (CD4+Foxp3+ Treg; [4]): significant increase in the number
frequency of CD4+IFNg+ T cells [1, 5]: decrease in the frequency
frequency of CD4+IL17+ T cells [1, 5]: decrease in the frequency
CD11b+ MHC class II expression (CD11c+ and CD11b+ cells): significant increase
CD11c+ MHC class II expression (CD11c+ and CD11b+ cells): significant decrease
AHR affinity (AHR): high affinity AHR ligands

Clc1cc2c(cc1Cl)Oc1cc(Cl)c(Cl)cc1O2 [TCDD, 2,3,7,8 tetrachlorodibenzo-p-dioxin]
EAE development (C57BL/6 mice; AHR-ligand loaded nanoparticles, 45 femtomoles weekly starting at day 0): complete suppression of EAE
Mean day of onset (Mean ± SD) (C57BL/6 mice; [6]): 21 days
Mean maximum score (mean ± SD) (C57BL/6 mice; [6]): 0.2 ± 0.6
histopathological signs of EAE (cellular infiltrate, demyelination, axonal loss in spinal cord) (C57BL/6 mice; IP administered TCDD, day 19 after EAE induction): reduced the histopathological signs of EAE; also recorded: inhibits CNS inflammation, demyelination and axonal loss
Incidence (positive/total) (C57BL/6 mice; TCDD 0.01 μg per mouse ip): 7/7
Mean day of onset (Mean ± standard deviation (SD)) (C57BL/6 mice; TCDD 0.01 μg per mouse ip): 14.1 ± 2.9 days
Mean maximum score (mean ± SD) (C57BL/6 mice; TCDD 0.01 μg per mouse ip, EAE score 0-5): 2.7 ± 0.6
Mean day of onset (Mean ± standard deviation (SD)) (C57BL/6 mice; TCDD 0.1 μg per mouse ip): 17.0 ± 1.2 days
Mean maximum score (mean ± SD) (C57BL/6 mice; TCDD 0.1 μg per mouse ip, EAE score 0-5): 3.1 ± 0.5
Mean day of onset (Mean ± standard deviation (SD)) (C57BL/6 mice; TCDD 1 μg per mouse ip, then MOG35-55/CFA): 21.8 ± 1.5 days
Mean maximum score (mean ± SD) (C57BL/6 mice; TCDD 1 μg per mouse ip, then MOG35-55/CFA, EAE score 0-5): 0.2 ± 0.6
clinical signs of EAE (C57BL/6 mice; TCDD 1 μg/mouse ip): markedly inhibited the clinical signs of EAE
EAE development (C57BL/6 mice; TCDD 1 μg/mouse orally, one day before EAE induction): prevented EAE development
onset of EAE (C57BL/6 mice; natural Treg depleted with antibodies to CD25 prior to TCDD treatment): significant delay in the onset of EAE
number of CD4+FoxP3+ Treg (CD4+Foxp3+ Treg; TCDD ip, draining lymph nodes, without immunization): small increase
frequency of CD4+Foxp3+ T cells (CD4+Foxp3+ Treg; TCDD ip, spleen, 21 days after EAE induction): significant increase in the frequency
rebound in Treg numbers (CD4+Foxp3+ Treg; natural Treg depleted with antibodies to CD25 prior to TCDD treatment, day 7): faster rebound in their Treg numbers
number of CD4+Foxp3+ T cells (CD4+Foxp3+ Treg; single TCDD ip followed by MOG35-55/CFA immunization, draining lymph nodes 10 days later): significant increase
frequency of CD4+IFNg+ T cells [1, 7]: decrease in the frequency
frequency of CD4+IL-17 T cells [1, 7]: decrease in the frequency
IL-17+CD4+ T cells in the draining lymph nodes ([1]; natural Treg depleted with antibodies to CD25 prior to TCDD treatment, day 18): significant reduction; also recorded: significant decrease in the frequency
CD11b+ MHC class II expression (CD11c+ and CD11b+ cells): significant increase
CD11c+ MHC class II expression (CD11c+ and CD11b+ cells): significant decrease
AHR affinity (AHR): high affinity AHR ligand
